{
  "source": "patent US12486240B2",
  "about": "“Oxadiazole compounds for controlling or preventing phytopathogenic fungi” (PI INDUSTRIES LTD., priority 2019, dated 2025)",
  "data": [
    {"test_system": "Phakopsora pachyrhizi", "assay": "Phakopsora pachyrhizi test on soybean (preventive spray)", "type": "in vivo", "conditions": "preventive spray on soybean plants, inoculated one day after treatment, rated 3, 7, 10 and 15 days after application, read-out: Efficacy (% control) from disease severity rating versus untreated control", "description": "Example 5: Phakopsora pachyrhizi Test on Soybean Compounds were dissolved in 2% dimethyl sulfoxide/acetone and then mixed with water containing an emulsifier to a calibrated spray volume of 50 mL. This 50 mL spray solution was poured into spray bottles for further applications. To test the preventive activity of compounds, healthy young Soybean plants raised in the greenhouse were sprayed with the active compound preparation at the stated application rates inside the spray cabinets using hollow cone nozzles. One day after treatment, the plants were inoculated with a spore suspension containing 2×10^5 Phakopsora pachyrhizi conidia. The inoculated plants were then kept in a greenhouse chamber at 22-24° C. temperature and 80-90% relative humidity for disease expression. A visual assessment of the compound's performance was carried out by rating the disease severity (0-100% scale) on treated plants 3, 7, 10 and 15 days after application. Efficacy (% control) of the compounds was calculated by comparing the disease rating in the treatment with the one of the untreated control. The sprayed plants were also assessed for plant compatibility by recording symptoms like necrosis, chlorosis and stunting.", "units": {"pest or weed control at 500 ppm": "%"}, "values": [
      {"smiles": "O=c1c(NCc2ccc(-c3noc(C(F)(F)F)n3)cc2)c(N2CC(O)C2)c1=O", "note": "[Compound 32, 3-(3-hydroxyazetidin-1-yl)-4-((4-(5-(trifluoromethyl)-1,2,4-oxadiazol-3-yl)benzyl)amino)cyclobut-3-ene-1,2-dione]", "pest or weed control at 500 ppm": "≥ 70"},
      {"smiles": "CN(Cc1ccc(-c2noc(C(F)(F)F)n2)cc1)c1c(N2CC(C#N)C2)c(=O)c1=O", "note": "[Compound 46, 1-(2-(methyl(4-(5-(trifluoromethyl)-1,2,4-oxadiazol-3-yl)benzyl)amino)-3,4-dioxocyclobut-1-en-1-yl)azetidine-3-carbonitrile]", "pest or weed control at 500 ppm": "≥ 70"},
      {"smiles": "COc1c(NCc2ccc(-c3noc(C(F)(F)F)n3)cc2)c(=O)c1=O", "note": "[Compound 18, 3-methoxy-4-((4-(5-(trifluoromethyl)-1,2,4-oxadiazol-3-yl)benzyl)amino)cyclobut-3-ene-1,2-dione]", "pest or weed control at 500 ppm": "≥ 70"},
      {"smiles": "CCCN(C)c1c(Nc2ccc(-c3noc(C(F)(F)F)n3)cc2)c(=O)c1=O", "note": "[Compound 11, 3-(methyl(propyl)amino)-4-((4-(5-(trifluoromethyl)-1,2,4-oxadiazol-3-yl)phenyl)amino)cyclobut-3-ene-1,2-dione]", "pest or weed control at 500 ppm": "≥ 70"},
      {"smiles": "O=c1c(Nc2ccc(-c3noc(C(F)(F)F)n3)cc2)c(N2CCC2)c1=O", "note": "[Compound 9, 3-(azetidin-1-yl)-4-((4-(5-(trifluoromethyl)-1,2,4-oxadiazol-3-yl)phenyl)amino)cyclobut-3-ene-1,2-dione]", "pest or weed control at 500 ppm": "≥ 70"},
      {"smiles": "COCCNc1c(NCc2ccc(-c3noc(C(F)(F)F)n3)cc2)c(=O)c1=O", "note": "[Compound 19, 3-((2-methoxyethyl)amino)-4-((4-(5-(trifluoromethyl)-1,2,4-oxadiazol-3-yl)benzyl)amino)cyclobut-3-ene-1,2-dione]", "pest or weed control at 500 ppm": "≥ 70"},
      {"smiles": "CN(Cc1ccc(-c2noc(C(F)(F)F)n2)cc1)c1c(N2CCC(F)C2)c(=O)c1=O", "note": "(stereo not drawn) [Compound 55, 3-(3-fluoropyrrolidin-1-yl)-4-(methyl(4-(5-(trifluoromethyl)-1,2,4-oxadiazol-3-yl)benzyl)amino)cyclobut-3-ene-1,2-dione]", "pest or weed control at 500 ppm": "≥ 70"},
      {"smiles": "CN(Cc1ccc(-c2noc(C(F)(F)F)n2)cc1)c1c(N2CCC(F)(F)C2)c(=O)c1=O", "note": "[Compound 50, 3-(3,3-difluoropyrrolidin-1-yl)-4-(methyl(4-(5-(trifluoromethyl)-1,2,4-oxadiazol-3-yl)benzyl)amino)cyclobut-3-ene-1,2-dione]", "pest or weed control at 500 ppm": "≥ 70"},
      {"smiles": "O=c1c(NCc2ccc(-c3noc(C(F)(F)F)n3)cc2)c(N2CCOCC2)c1=O", "note": "[Compound 17, 3-morpholino-4-((4-(5-(trifluoromethyl)-1,2,4-oxadiazol-3-yl)benzyl)amino)cyclobut-3-ene-1,2-dione]", "pest or weed control at 500 ppm": "≥ 70"},
      {"smiles": "CN(Cc1ccccc1)c1c(Nc2ccc(-c3noc(C(F)(F)F)n3)cc2)c(=O)c1=O", "note": "[Compound 1, 3-(benzyl(methyl)amino)-4-((4-(5-(trifluoromethyl)-1,2,4-oxadiazol-3-yl)phenyl)amino)cyclobut-3-ene-1,2-dione]", "pest or weed control at 500 ppm": "≥ 70"},
      {"smiles": "O=c1c(NCc2ccc(-c3noc(C(F)(F)F)n3)cc2)c(N2CCSCC2)c1=O", "note": "[Compound 31, 3-thiomorpholino-4-((4-(5-(trifluoromethyl)-1,2,4-oxadiazol-3-yl)benzyl)amino)cyclobut-3-ene-1,2-dione]", "pest or weed control at 500 ppm": "≥ 70"},
      {"smiles": "COC1CN(c2c(N(C)Cc3ccc(-c4noc(C(F)(F)F)n4)cc3)c(=O)c2=O)C1", "note": "[Compound 45, 3-(3-methoxyazetidin-1-yl)-4-(methyl(4-(5-(trifluoromethyl)-1,2,4-oxadiazol-3-yl)benzyl)amino)cyclobut-3-ene-1,2-dione]", "pest or weed control at 500 ppm": "≥ 70"},
      {"smiles": "N#CC1CCN(c2c(Nc3ccc(-c4noc(C(F)(F)F)n4)cc3)c(=O)c2=O)C1", "note": "(stereo not drawn) [Compound 15, 1-(3,4-dioxo-2-((4-(5-(trifluoromethyl)-1,2,4-oxadiazol-3-yl)phenyl)amino)cyclobut-1-en-1-yl)pyrrolidine-3-carbonitrile]", "pest or weed control at 500 ppm": "≥ 70"},
      {"smiles": "CN(Cc1ccc(-c2noc(C(F)(F)F)n2)cc1)c1c(N2CCC2)c(=O)c1=O", "note": "[Compound 47, 3-(azetidin-1-yl)-4-(methyl(4-(5-(trifluoromethyl)-1,2,4-oxadiazol-3-yl)benzyl)amino)cyclobut-3-ene-1,2-dione]", "pest or weed control at 500 ppm": "≥ 70"},
      {"smiles": "COC1CCN(c2c(Nc3ccc(-c4noc(C(F)(F)F)n4)cc3)c(=O)c2=O)C1", "note": "(stereo not drawn) [Compound 5, 3-(3-methoxypyrrolidin-1-yl)-4-((4-(5-(trifluoromethyl)-1,2,4-oxadiazol-3-yl)phenyl)amino)cyclobut-3-ene-1,2-dione]", "pest or weed control at 500 ppm": "≥ 70"},
      {"smiles": "CN1CCN(c2c(Nc3ccc(-c4noc(C(F)(F)F)n4)cc3)c(=O)c2=O)CC1", "note": "[Compound 16, 3-(4-methylpiperazin-1-yl)-4-((4-(5-(trifluoromethyl)-1,2,4-oxadiazol-3-yl)phenyl)amino)cyclobut-3-ene-1,2-dione]", "pest or weed control at 500 ppm": "≥ 70"},
      {"smiles": "O=c1c(NCc2ccc(-c3noc(C(F)(F)F)n3)cc2)c(N2CCC(F)(F)C2)c1=O", "note": "[Compound 33, 3-(3,3-difluoropyrrolidin-1-yl)-4-((4-(5-(trifluoromethyl)-1,2,4-oxadiazol-3-yl)benzyl)amino)cyclobut-3-ene-1,2-dione]", "pest or weed control at 500 ppm": "≥ 70"},
      {"smiles": "CC(C)Nc1c(N(C)Cc2ccc(-c3noc(C(F)(F)F)n3)cc2)c(=O)c1=O", "note": "[Compound 51, 3-(isopropylamino)-4-(methyl(4-(5-(trifluoromethyl)-1,2,4-oxadiazol-3-yl)benzyl)amino)cyclobut-3-ene-1,2-dione]", "pest or weed control at 500 ppm": "≥ 70"},
      {"smiles": "CCN(C)c1c(N(C)Cc2ccc(-c3noc(C(F)(F)F)n3)cc2)c(=O)c1=O", "note": "[Compound 53, 3-(ethyl(methyl)amino)-4-(methyl(4-(5-(trifluoromethyl)-1,2,4-oxadiazol-3-yl)benzyl)amino)cyclobut-3-ene-1,2-dione]", "pest or weed control at 500 ppm": "≥ 70"},
      {"smiles": "CN(Cc1cc(F)cc(F)c1)c1c(Nc2ccc(-c3noc(C(F)(F)F)n3)cc2)c(=O)c1=O", "note": "[Compound 10, 3((3,5-difluorobenzyl)(methyl)amino)-4-((4-(5-(trifluoromethyl)-1,2,4-oxadiazol-3-yl)phenyl)amino)cyclobut-3-ene-1,2-dione]", "pest or weed control at 500 ppm": "≥ 70"},
      {"smiles": "C=CCNc1c(NCc2ccc(-c3noc(C(F)(F)F)n3)cc2)c(=O)c1=O", "note": "[Compound 20, 3-(allylamino)-4-((4-(5-(trifluoromethyl)-1,2,4-oxadiazol-3-yl)benzyl)amino)cyclobut-3-ene-1,2-dione]", "pest or weed control at 500 ppm": "≥ 70"},
      {"smiles": "CCOC1CN(c2c(Nc3ccc(-c4noc(C(F)(F)F)n4)cc3)c(=O)c2=O)C1", "note": "[Compound 6, 3-(3-ethoxyazetidin-1-yl)-4-((4-(5-(trifluoromethyl)-1,2,4-oxadiazol-3-yl)phenyl)amino)cyclobut-3-ene-1,2-dione]", "pest or weed control at 500 ppm": "≥ 70"},
      {"smiles": "COc1c(N(C)Cc2ccc(-c3noc(C(F)(F)F)n3)cc2)c(=O)c1=O", "note": "[Compound 41, 3-methoxy-4-(methyl(4-(5-(trifluoromethyl)-1,2,4-oxadiazol-3-yl)benzyl)amino)cyclobut-3-ene-1,2-dione]", "pest or weed control at 500 ppm": "≥ 70"},
      {"smiles": "O=C1CN(c2c(Nc3ccc(-c4noc(C(F)(F)F)n4)cc3)c(=O)c2=O)CCN1", "note": "[Compound 13, 3-(3-oxopiperazin-1-yl)-4-((4-(5-(trifluoromethyl)-1,2,4-oxadiazol-3-yl)phenyl)amino)cyclobut-3-ene-1,2-dione]", "pest or weed control at 500 ppm": "≥ 70"}
    ]}
  ]
}
